The test system of one experiment is A2780 cells. Description: In-vitro cell proliferation assay (SRB), A2780 cells.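 Also: viable cell number read as SRB absorbance, background from media-only wells subtracted, IC50 interpolated from percent inhibition at two bracketing compound concentrations.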 Conditions: Homo sapiens, A2780, 72 h, A2780 cells, 72 hours, SRB; read-out: A2780 IC50. Format: cell-based.
Another experiment concerns the target NAMPT (Homo sapiens (Human), UniProt P43490). Description: NAMPT biochemical inhibition assay (NMN quantified by mass spectrometry). Conditions: NAMPT biochemical inhibition; read-out: Biochem IC50.

NAMPT, sequence (P43490 whole entry): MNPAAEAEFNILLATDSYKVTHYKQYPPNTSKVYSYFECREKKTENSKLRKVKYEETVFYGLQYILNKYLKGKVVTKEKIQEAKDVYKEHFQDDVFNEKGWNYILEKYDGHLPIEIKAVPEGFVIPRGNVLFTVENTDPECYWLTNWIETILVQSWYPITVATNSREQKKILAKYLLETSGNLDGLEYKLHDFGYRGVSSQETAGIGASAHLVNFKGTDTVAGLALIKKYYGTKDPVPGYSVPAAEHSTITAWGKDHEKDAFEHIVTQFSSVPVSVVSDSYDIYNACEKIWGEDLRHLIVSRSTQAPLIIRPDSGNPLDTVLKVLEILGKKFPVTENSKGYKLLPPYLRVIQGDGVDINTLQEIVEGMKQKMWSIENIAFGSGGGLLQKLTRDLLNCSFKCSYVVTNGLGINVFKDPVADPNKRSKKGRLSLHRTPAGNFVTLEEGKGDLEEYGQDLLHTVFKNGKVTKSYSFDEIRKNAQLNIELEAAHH

One may read the IC50 as the point on the concentration scale where inhibition reaches its midpoint. Regarding `COc1cccc(F)c1S(=O)(=O)c1ccc(NC(=O)NCc2cccnc2)cc1` [3-{4-[(2-fluoro-6-methoxybenzene)sulfonyl]phenyl}-1-(pyridin-3-ylmethyl)urea], the IC50 in the experiment with A2780 cells came to 10 nM; on NAMPT, 2 nM.
Take `O=C(NCc1cccnc1)Nc1ccc(S(=O)(=O)c2ccccc2F)cc1` [3-{4-[(2-fluorobenzene)sulfonyl]phenyl}-1-(pyridin-3-ylmethyl)urea]: the IC50 is 493 nM in the experiment with A2780 cells and 3 nM at NAMPT.
For the molecule `O=C(NCc1cccnc1)Nc1ccc(S(=O)(=O)Nc2ccccc2I)cc1` [3-{4-[(2-iodophenyl)sulfamoyl]phenyl}-1-(pyridin-3-ylmethyl)urea], the IC50 with A2780 cells stood at 39 nM; at NAMPT it was 0.8 nM.
Consider `COc1ccc(C)cc1S(=O)(=O)c1ccc(NC(=O)NCc2cccnc2)cc1` [3-{4-[(2-methoxy-5-methylbenzene)sulfonyl]phenyl}-1-(pyridin-3-ylmethyl)urea], for which the figures for the IC50 with A2780 cells and on NAMPT were 7 nM and 4 nM, respectively.
In the same order, the values of `COc1ccc(C)cc1NS(=O)(=O)c1ccc(NC(=O)NCc2cccnc2)cc1` [3-{4-[(2-methoxy-5-methylphenyl)sulfamoyl]phenyl}-1-(pyridin-3-ylmethyl)urea] are 2 nM and 2 nM.
On to `COc1ccccc1S(=O)(=O)c1ccc(NC(=O)NCc2cccnc2)cc1` [3-{4-[(2-methoxybenzene)sulfonyl]phenyl}-1-(pyridin-3-ylmethyl)urea], for which the IC50 in the experiment with A2780 cells is 10 nM; on NAMPT, 2 nM.
Take `COc1ncccc1NS(=O)(=O)c1ccc(NC(=O)NCc2cccnc2)cc1` [3-{4-[(2-methoxypyridin-3-yl)sulfamoyl]phenyl}-1-(pyridin-3-ylmethyl)urea]: the IC50 with A2780 cells was 114 nM; at NAMPT, 7 nM.
In the same order, the values of `Cc1ccccc1S(=O)(=O)c1ccc(NC(=O)NCc2cccnc2)cc1` [3-{4-[(2-methylbenzene)sulfonyl]phenyl}-1-(pyridin-3-ylmethyl)urea] are 450 nM and 2 nM.
Consider `CC(C)(NS(=O)(=O)c1ccc(NC(=O)NCc2cccnc2)cc1)c1ccccc1` [3-{4-[(2-phenylpropan-2-yl)sulfamoyl]phenyl}-1-(pyridin-3-ylmethyl)urea], for which the IC50 amounted to 39 nM with A2780 cells and 5 nM on NAMPT.
With `COC[C@@H]1CCCN1S(=O)(=O)c1ccc(NC(=O)NCc2cccnc2)cc1` [3-{4-[(2S)-2-(methoxymethyl)pyrrolidine-1-sulfonyl]phenyl}-1-(pyridin-3-ylmethyl)urea], the results for the IC50 in the experiment on A2780 cells and on NAMPT were 60 nM and 2 nM, respectively.
Regarding `CC[C@H]1CCCCN1S(=O)(=O)c1ccc(NC(=O)NCc2cccnc2)cc1` [3-{4-[(2S)-2-ethylpiperidine-1-sulfonyl]phenyl}-1-(pyridin-3-ylmethyl)urea], the IC50 in the experiment on A2780 cells was 18 nM; at NAMPT, 4 nM.
`O=C(NCc1cccnc1)Nc1ccc(S(=O)(=O)c2ccc(Cl)c(Cl)c2)cc1` [3-{4-[(3,4-dichlorobenzene)sulfonyl]phenyl}-1-(pyridin-3-ylmethyl)urea]: the IC50 in the experiment with A2780 cells is 100 to 1000 nM; on NAMPT, 2.9 nM.
On to `O=C(NCc1cccnc1)Nc1ccc(S(=O)(=O)Nc2ccc(Cl)c(Cl)c2)cc1` [3-{4-[(3,4-dichlorophenyl)sulfamoyl]phenyl]-1-(pyridin-3-ylmethyl)urea], for which the IC50 in the experiment on A2780 cells is 122 nM; at NAMPT it was 6 nM.
In the case of `O=C(NCc1cccnc1)Nc1ccc(S(=O)(=O)c2ccc(F)c(F)c2)cc1` [3-{4-[(3,4-difluorobenzene)sulfonyl]phenyl}-1-(pyridin-3-ylmethyl)urea], the IC50 in the experiment with A2780 cells amounted to 214 nM; on NAMPT, 3 nM.
Taken in the same sequence, the figures for `COc1ccc(S(=O)(=O)c2ccc(NC(=O)NCc3cccnc3)cc2)cc1OC` [3-{4-[(3,4-dimethoxybenzene)sulfonyl]phenyl}-1-(pyridin-3-ylmethyl)urea] were 17 nM and 5 nM.

The values above are taken from patent US11279687B2, “Compounds and compositions for the inhibition of NAMPT” (Valo Health, Inc., priority 2010, dated 2022).
